Source: PubChem BioAssay AID602237 (National Center for Advancing Translational Sciences (NCATS), 2012)
Values after ≈ are worked out from the molar mass of the structure shown.

Test system: aqueous kinetic solubility, PBS pH 7.4, LC-UV/MS
Test: qHTS for Activators of Human alpha-Glucosidase as a Potential Chaperone Treatment of Pompe Disease: Aqueous Solubility
Settings: hits give high values
Excerpt: Alpha-glucosidase is responsible for hydrolysis of terminal, non-reducing 1,4-linked alpha-D-glucose residues with release of alpha-D-glucose. It is a lysosomal hydrolase that is required for the degradation of a small percentage (1-3%) of cellular glycogen in human. Deficiency of this enzyme results in glycogen-storage disease type II (GSDII), also referred to as Pompe disease, an autosomal recessive disorder. Structurally normal glycogen is accumulated in lysosomes and cytoplasm in affected patients, primarily in muscle tissues. Excessive glycogen storage within lysosomes may interrupt normal functioning of other organelles and leads to cellular injury. In turn, this leads to enlargement and dysfunction of the entire organ involved (eg, cardiomyopathy and muscle weakness). It has reported that the improper folding and trafficking of alpha-glucosidase resulting from the genetic mutations may account for a significant number of Pompe patients. […]
1. […] Concentration of the supernatant was determined by LC-UV or LC-MS/MS […]

solubility: 289 µM (≈ 109 µg/mL)
SMILES: CCCN1CNc2c(c(=O)[nH]c(=S)n2Cc2ccc(OC)c(OC)c2)C1
